Experimental data from US10206937B2, “Boronic acid derivatives and therapeutic uses thereof” (Qpex Biopharma, Inc., priority 2014, dated 2019).
Where two headings read alike, the source gives them in different places.

Assays:
OXA-48 = OXA-48 (Klebsiella pneumoniae, UniProt Q6XEC0); assay: Inhibition of purified class D carbapenemase OXA-48 (Ki, carbapenem substrates); format: biochemical
NDM-1 [1] = target: T1, NDM-1 (Klebsiella pneumoniae, UniProt C7C422); assay: biochemical
[2] = test system: strains of Enterobacteriaceae overexpressing various carbapenemases (class A and B); assay: organism not typed; format: cell-based
Source text: Several strains simultaneously expressing both class A and class B carbapenemases, which were constructed using conjugation, were also included in the panel.

[3] = target: T2, purified class A, C and D enzymes (UniProt Q6XEC0); format: biochemical; conditions: read-out: Ki (OXA-48, NCF); purified OXA-48; nitrocefin reporter substrate
T2 construct: rows headed: Ki (OXA-48, NCF); other: purified OXA-48; nitrocefin reporter substrate

[4] = target: T3, purified class A, C and D enzymes (UniProt P0AD64, L31Q/G234S/E235K, species not given); format: biochemical; conditions: read-out: Ki (SHV-12, NCF); purified SHV-12; nitrocefin reporter substrate
T3 construct: Ki (SHV-12, NCF); other: purified SHV-12; nitrocefin reporter substrate
T3 sequence (P0AD64 1-286 L31Q/G234S/E235K): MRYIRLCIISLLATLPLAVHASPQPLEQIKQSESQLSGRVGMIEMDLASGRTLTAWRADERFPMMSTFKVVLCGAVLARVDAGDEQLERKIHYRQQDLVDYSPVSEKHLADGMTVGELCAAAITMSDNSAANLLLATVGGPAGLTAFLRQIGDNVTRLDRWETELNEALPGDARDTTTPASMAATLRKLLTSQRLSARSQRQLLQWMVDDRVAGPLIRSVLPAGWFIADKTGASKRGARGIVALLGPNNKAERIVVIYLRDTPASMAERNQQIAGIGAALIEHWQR

VIM-1 = target: T4, VIM-1 (Pseudomonas aeruginosa, UniProt A0A0F7KYQ8); assay: biochemical; conditions: cleavage of nitrocefin (200 uM) by VIM-1 supernatant
T4 construct: made in house; host or cells: ECM6711 strain carrying pUCP24-VIM-1 plasmid; culture supernatant used unpurified

[5] = target: T5, purified class A, C and D enzymes (UniProt Q9F663); format: biochemical; conditions: read-out: Ki (KPC-2, NCF); purified KPC-2; nitrocefin reporter substrate
T5 construct: rows headed: Ki (KPC-2, NCF); other: purified KPC-2; nitrocefin reporter substrate

NDM-1 [6] = target: T1, NDM-1; assay: Inhibition of purified class B carbapenemase NDM-1 (Ki, imipenem substrate); format: biochemical; conditions: NDM-1, substrate imipenem; read-out: Ki NDM-1, Imipenem
KPC-2 = KPC-2 (Klebsiella pneumoniae, UniProt Q9F663); assay: Inhibition of purified class A carbapenemase KPC-2 (Ki, carbapenem substrates); format: biochemical
KPC-2, sequence (Q9F663 25-293 limits assumed): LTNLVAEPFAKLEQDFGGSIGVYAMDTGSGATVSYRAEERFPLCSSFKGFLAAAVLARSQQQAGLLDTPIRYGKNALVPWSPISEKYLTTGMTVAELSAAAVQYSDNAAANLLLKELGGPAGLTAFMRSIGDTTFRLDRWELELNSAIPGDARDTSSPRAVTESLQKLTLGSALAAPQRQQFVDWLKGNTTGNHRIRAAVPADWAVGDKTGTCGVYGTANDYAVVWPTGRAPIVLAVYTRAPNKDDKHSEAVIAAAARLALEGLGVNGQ

[7] = target: purified class A, C and D enzymes (Enterobacter cloacae, UniProt P05364); format: biochemical; conditions: purified P99/AmpC of ECL; nitrocefin reporter substrate
purified class A, C and D enzymes (Enterobacter cloacae, UniProt P05364), sequence (P05364 21-381): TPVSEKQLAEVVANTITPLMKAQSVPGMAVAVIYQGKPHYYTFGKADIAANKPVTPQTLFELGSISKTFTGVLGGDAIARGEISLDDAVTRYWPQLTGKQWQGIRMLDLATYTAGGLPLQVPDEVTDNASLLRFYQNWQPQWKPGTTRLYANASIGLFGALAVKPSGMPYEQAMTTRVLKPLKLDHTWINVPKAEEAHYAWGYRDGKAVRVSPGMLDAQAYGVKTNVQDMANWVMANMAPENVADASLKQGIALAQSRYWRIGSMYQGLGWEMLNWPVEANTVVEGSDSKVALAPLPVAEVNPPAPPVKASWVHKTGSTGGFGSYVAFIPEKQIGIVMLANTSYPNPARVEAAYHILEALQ

[8] = target: purified class A, C and D enzymes (Escherichia coli, UniProt Q9L5C7); format: biochemical; conditions: purified CTX-M-14; nitrocefin reporter substrate
purified class A, C and D enzymes (Escherichia coli, UniProt Q9L5C7), sequence (Q9L5C7 entry or part of it): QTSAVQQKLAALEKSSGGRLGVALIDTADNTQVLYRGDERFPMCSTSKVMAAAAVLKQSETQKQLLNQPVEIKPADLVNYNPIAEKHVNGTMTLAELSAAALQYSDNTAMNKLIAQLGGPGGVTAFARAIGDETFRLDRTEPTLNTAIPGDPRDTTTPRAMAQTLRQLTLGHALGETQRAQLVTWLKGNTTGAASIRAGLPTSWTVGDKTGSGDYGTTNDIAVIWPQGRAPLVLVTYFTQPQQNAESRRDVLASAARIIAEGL

[9] = test system: strains of Enterobacteriaceae producing various carbapenemases (class A, D and B; 169 strains); assay: Meropenem or tebipenem potentiation by Compounds 97 or 62 (MIC); format: cell-based; conditions: Compound 97 at a fixed concentration of 8 μg/ml
Protocol: The largest panel of clinical isolates expressing class A, D and B carbapenemases alone or in combination with other beta-lactamases (169 strains) was used to evaluate carbapenem potentiation activity of Compounds 97 and 62. MIC for meropenem and tebipenem of these strains were determined either alone or in the presence of Compounds 97 or 62, respectively, at a fixed concentration of 8 μg/ml in the growth media.

[10] = cleavage of biapenem by OXA-48, read-out: Ki, Biapenem
[11] = cleavage of imipenem by OXA-48, read-out: Ki, Imipenem
[12] = cleavage of meropenem by OXA-48, read-out: Ki, Meropenem
[13] = cleavage of tebipenem by OXA-48, read-out: Ki, Tebipenem
[14] = cleavage of biapenem (100 uM) by NDM-1, read-out: Ki, Biapenem
[15] = cleavage of imipenem (100 uM) by NDM-1, read-out: Ki, Imipenem
[16] = cleavage of meropenem (100 uM) by NDM-1, read-out: Ki, Meropenem
[17] = purified OXA-48, substrate biapenem, read-out: Ki OXA-48, Biapenem
[18] = cleavage of doripenem by OXA-48, read-out: Ki, Doripenem
[19] = cleavage of biapenem by KPC-2, read-out: Ki, Biapenem
[20] = cleavage of doripenem by KPC-2, read-out: Ki, Doripenem
[21] = cleavage of imipenem by KPC-2, read-out: Ki, Imipenem
[22] = cleavage of meropenem by KPC-2, read-out: Ki, Meropenem
[23] = cleavage of tebipenem by KPC-2, read-out: Ki, Tebipenem

OXA-48, sequence (Q6XEC0 23-265, looked up): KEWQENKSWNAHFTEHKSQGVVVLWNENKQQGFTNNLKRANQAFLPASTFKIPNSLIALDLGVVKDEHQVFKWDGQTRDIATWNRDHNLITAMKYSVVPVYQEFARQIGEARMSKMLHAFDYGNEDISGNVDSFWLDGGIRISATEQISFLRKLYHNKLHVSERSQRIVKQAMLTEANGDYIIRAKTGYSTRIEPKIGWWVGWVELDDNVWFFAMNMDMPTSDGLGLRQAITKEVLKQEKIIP
T1 sequence (C7C422 29-270, looked up, species assumed): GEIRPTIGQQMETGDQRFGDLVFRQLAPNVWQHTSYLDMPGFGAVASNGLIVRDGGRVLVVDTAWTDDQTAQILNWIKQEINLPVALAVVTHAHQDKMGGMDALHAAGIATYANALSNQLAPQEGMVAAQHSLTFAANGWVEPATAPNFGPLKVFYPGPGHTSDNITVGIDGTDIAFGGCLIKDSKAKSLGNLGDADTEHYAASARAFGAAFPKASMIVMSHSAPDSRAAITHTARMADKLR

SMILES	Ki (OXA-48; [10]) [nM]	Ki (OXA-48; [11]) [nM]	Ki (OXA-48; [12]) [nM]	Ki (OXA-48; [13]) [nM]	Ki (NDM-1 [1]; [14]) [nM]	Ki (NDM-1 [1]; [15]) [nM]	Ki (NDM-1 [1]; [16]) [nM]	Ki [3] [nM]	Ki [4] [nM]	IC50 (VIM-1) [nM]	Ki (OXA-48; [17]) [nM]	Ki [5] [nM]	Ki (NDM-1 [6]) [nM]	Ki (OXA-48; [18]) [nM]	Ki (KPC-2; [19]) [nM]	Ki (KPC-2; [20]) [nM]	Ki (KPC-2; [21]) [nM]	Ki (KPC-2; [22]) [nM]	Ki (KPC-2; [23]) [nM]	Ki (P99/AmpC of ECL, NCF) [7]	also measured
Nn1cnnc1S[C@H]1Cc2cccc(C(=O)O)c2OB1O [Compound 14, (R)-3-(4-amino-4H-1,2,4-triazol-3-ylthio)-2-hydroxy-3,4-dihydro-2H-benzo[e][1,2]oxaborinine-8-carboxylic acid]	10 to 100	10 to 100	> 100	> 100	< 10	< 10	< 10	< 100	< 100	< 1000											carbapenem MIC (imipenem, meropenem) [2]: significantly reduced
CS[C@H]1Cc2cccc(C(=O)O)c2OB1O [Compound 16, (R)-2-hydroxy-3-(methylthio)-3,4-dihydro-2H-benzo[e][1,2]oxaborinine-8-carboxylic acid]						< 10		< 100	100 to 1000	< 1000	< 10	< 100									
O=C(O)c1cccc2c1OB(O)[C@@H](OC1CNC1)C2 [Compound 18, (R)-3-(azetidin-3-yloxy)-2-hydroxy-3,4-dihydro-2H-benzo[e][1,2]oxaborinine-8-carboxylic acid]					< 10	10 to 100	< 10	< 100	< 100	≥ 1000	< 10	100 to 1000	10 to 100								
Nc1nnc(S[C@H]2Cc3ccc(F)c(C(=O)O)c3OB2O)s1 [Compound 23, (R)-3-(5-amino-1,3,4-thiadiazol-2-ylthio)-7-fluoro-2-hydroxy-3,4-dihydro-2H-benzo[e][1,2]oxaborinine-8-carboxylic acid]	< 10	< 10	< 10	< 10		10 to 100		< 100	< 100	≥ 1000		< 100	10 to 100	< 10	< 10	< 10	10 to 100	< 10	< 10		
CSc1ccc2c(c1C(=O)O)OB(O)[C@@H](Sc1nnc(N)s1)C2 [Compound 30, (R)-3-(5-amino-1,3,4-thiadiazol-2-ylthio)-2-hydroxy-7-(methylthio)-3,4-dihydro-2H-benzo[e][1,2]oxaborinine-8-carboxylic acid]	< 10	< 10	< 10	< 10	10 to 100	10 to 100	< 10	< 100	< 100	< 1000	10 to 100	< 100	10 to 100	< 10	< 10	< 10	10 to 100	< 10	< 10	X (Less than 0.1 μM)	Ki (NDM-1 [1]; cleavage of tebipenem (100 uM) by NDM-1, read-out: Ki, Tebipenem): 10 to 100 nM; Ki (CTX-M-14, NCF) [8]: X (Less than 0.1 μM); Ki (KPC-2; purified KPC-2, substrate biapenem, read-out: Ki KPC-2, Biapenem): 10 to 100 nM
COc1ccc2c(c1C(=O)O)OB(O)[C@@H](Sc1nnc(NCCN)s1)C2 [Compound 97, (3R)-3-[[5-(2-aminoethylamino)-1,3,4-thiadiazol-2-yl]sulfanyl]-2-hydroxy-7-methoxy-3,4-dihydro-1,2-benzoxaborinine-8-carboxylic acid]						< 10		< 100	< 100	< 1000		100 to 1000	< 10							Y (0.1 μM to 1 μM)	Ki (CTX-M-14, NCF) [8]: X (Less than 0.1 μM); meropenem MIC [9]: significantly reduced
